In patent US8168651B2, “Protein kinase modulators” (Cylene Pharmaceuticals, Inc., priority 2008, dated 2012):
Read-outs that look alike come from different tables or passages of the source.

Tests used:
[1] = system: HCT-116 human colorectal carcinoma cells; assay: Cell-proliferation assay using Alamar Blue dye; assay type: cell-based; settings: Homo sapiens, HCT-116, second HCT-116 column (c8); read-out: HCT-116 (uM) cell proliferation modulatory activity;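 note: cells exposed to compound for about 4 days, then Alamar Blue added and dye fluorescence read after about 4 h, compared with medium-only control wells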
recombinant human PIM1 = recombinant human PIM1 (Homo sapiens (Human), UniProt P11309); assay: PIM-1 kinase activity in cell-free in vitro assay; assay type: biochemical; settings: for inhibition at 0.5 µM: 500 nM compound, read-out: PIM-1: % inh 500 nM
recombinant human PIM1, sequence (P11309 whole entry): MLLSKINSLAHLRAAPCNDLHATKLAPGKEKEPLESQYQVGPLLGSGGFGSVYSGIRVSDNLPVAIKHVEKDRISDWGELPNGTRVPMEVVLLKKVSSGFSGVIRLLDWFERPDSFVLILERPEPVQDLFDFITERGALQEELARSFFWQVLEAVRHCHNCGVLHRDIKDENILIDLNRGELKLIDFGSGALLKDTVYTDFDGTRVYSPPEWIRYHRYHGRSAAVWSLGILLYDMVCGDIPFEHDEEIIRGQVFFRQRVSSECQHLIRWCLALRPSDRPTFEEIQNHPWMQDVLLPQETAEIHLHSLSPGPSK

Jurkat = assay: Cell proliferation modulatory activity, Jurkat; assay type: cell-based; settings: Homo sapiens; Jurkat cells
K-562 [2] = assay: Cell proliferation modulatory activity, K-562; assay type: cell-based; settings: Homo sapiens, K562; K-562 cells
MV-4-11 = assay: Cell proliferation modulatory activity, MV-4-11; assay type: cell-based; settings: Homo sapiens, MV4-11; MV-4-11 cells
[3] = system: PC-3 human prostatic cancer cells; assay: Cell-proliferation assay using Alamar Blue dye; assay type: cell-based; settings: read-out: PC3 IC50
Outline: (§1)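 Seed 4,000-5,000 cells per well. Add 2× compound dilutions and incubate four days at 37° C., 5% CO2. Add Alamar Blue, incubate four hours, then read fluorescence at 544/590 nm.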

FLT3 autophos = FLT3 autophos (Homo sapiens (Human), UniProt P36888); assay: FLT3 autophos IC50 (Table 46); assay type: cell-based
FLT3 autophos, sequence (P36888 27-993): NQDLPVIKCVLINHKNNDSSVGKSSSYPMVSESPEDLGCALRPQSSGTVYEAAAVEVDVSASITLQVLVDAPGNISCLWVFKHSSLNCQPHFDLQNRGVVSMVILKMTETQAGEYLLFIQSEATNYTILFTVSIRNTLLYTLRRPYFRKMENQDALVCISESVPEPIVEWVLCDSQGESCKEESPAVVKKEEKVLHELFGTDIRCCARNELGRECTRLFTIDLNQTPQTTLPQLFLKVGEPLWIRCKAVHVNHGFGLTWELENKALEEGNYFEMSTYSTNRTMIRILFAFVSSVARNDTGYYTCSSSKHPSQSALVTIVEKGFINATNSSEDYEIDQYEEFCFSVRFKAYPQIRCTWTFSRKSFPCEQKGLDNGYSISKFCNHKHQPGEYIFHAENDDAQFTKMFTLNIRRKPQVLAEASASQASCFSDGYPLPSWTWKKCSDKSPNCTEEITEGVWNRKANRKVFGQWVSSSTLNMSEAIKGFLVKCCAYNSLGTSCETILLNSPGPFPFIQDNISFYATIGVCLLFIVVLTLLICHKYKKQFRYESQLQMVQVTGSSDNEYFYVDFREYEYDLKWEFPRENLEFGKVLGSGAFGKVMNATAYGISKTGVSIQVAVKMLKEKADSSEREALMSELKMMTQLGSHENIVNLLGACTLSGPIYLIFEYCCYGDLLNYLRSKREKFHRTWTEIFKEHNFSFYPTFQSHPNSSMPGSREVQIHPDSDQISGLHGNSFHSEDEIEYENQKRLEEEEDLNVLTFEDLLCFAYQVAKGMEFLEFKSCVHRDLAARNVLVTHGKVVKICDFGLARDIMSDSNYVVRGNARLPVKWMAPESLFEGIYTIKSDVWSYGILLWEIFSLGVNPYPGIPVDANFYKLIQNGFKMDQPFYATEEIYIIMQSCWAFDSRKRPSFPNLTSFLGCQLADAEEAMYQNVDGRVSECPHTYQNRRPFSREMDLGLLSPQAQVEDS

phospho-BAD ser112 = phospho-BAD ser112 IC50 (Table 46); assay type: cell-based
K-562 [4] = assay: K-562 IC50 (Table 46); assay type: cell-based; settings: Homo sapiens, K562
MV-411 = MV-411 IC50 (Table 46); assay type: cell-based; settings: Homo sapiens, MV4-11
MDA MB231 = MDA MB231 IC50 (Table 46); assay type: cell-based; settings: Homo sapiens, MDA-MB-231
[5] = system: MiaPaca human pancreatic carcinoma cells; assay: Cell-proliferation assay using Alamar Blue dye; assay type: cell-based; settings: MIA PaCa-2
Outline: as §1

Flt3 = Flt3 (Homo sapiens (Human), UniProt P36888); settings: cited from earlier work
Flt3, sequence (P36888 27-993): as above

MiaPaca xenografts = assay: Tumor suppression in MiaPaca xenograft mice; assay type: in vivo, NCr nu/nu mice; settings: IV administration
Description: Animals were handled under laminar-flow hoods.
Tumor volume measurements (FIG. 3A) and body weight (FIG. 3B) were recorded on days 3, 6, 8, 10, 13 and 15.
Gemzar™ administered at a dose of 80 mg/kg IP Q3D was used as a positive control.

[6] = system: leukemic cells from AML patients; settings: cited from earlier work
MV-4-11 (AML) xenograft = MV-4-11 (AML) xenograft model; cited from earlier work
MOLM-13 (AML) xenograft = MOLM-13 (AML) xenograft model; cited from earlier work
A549 = assay: Cell-proliferation assay using Alamar Blue dye; assay type: cell-based; settings: Homo sapiens
Description: (§2) A representative cell-proliferation assay protocol using Alamar Blue dye (stored at 4° C., use 20 ul per well) is described hereafter.
(§3) 96-Well Plate Setup and Compound Treatment
(§4) • a. Split and trypsinize cells. • b. Count cells using hemocytometer. • c. Plate 4,000-5,000 cells per well in 100 μl of medium and seed into a 96-well plate according to the following plate layout. Add cell culture medium only to wells B10 to B12. Wells B1 to B9 have cells but no compound added.
(§5) • d. Add 100 μl of 2× drug dilution to each well in a concentration shown in the plate layout above. At the same time, add 100 μl of media into the control wells (wells B10 to B12). Total volume is 200 μl/well. • e. Incubate four (4) days at 37° C., 5% CO2 in a humidified incubator. • f. Add 20 μl Alamar Blue reagent to each well. • g. Incubate for four (4) hours at 37° C., 5% CO2 in a humidified incubator. • h. Record fluorescence at an excitation wavelength of 544 nm and emission wavelength of 590 nm using a microplate reader.
(§6) In the assays, cells are cultured with a test compound for approximately four days, the dye then is added to the cells and fluorescence of […] dye is detected after approximately four hours. Different types of cells can be utilized in the assays (e.g., HCT-116 human colorectal carcinoma cells, PC-3 human prostatic cancer cells and MiaPaca human pancreatic carcinoma cells). Anti-proliferative effects of representative compounds are provided hereafter

LNCaP = assay: Cell-proliferation assay using Alamar Blue dye; assay type: cell-based; settings: Homo sapiens
Description: as §2, §3, §4, §5, §6

MCF-7 = assay: Cell-proliferation assay using Alamar Blue dye; assay type: cell-based; settings: Homo sapiens, MCF7
Description: as §2, §3, §4, §5, §6

MDAMB231 = assay: Cell-proliferation assay using Alamar Blue dye; assay type: cell-based; settings: Homo sapiens, MDA-MB-231
Description: as §2, §3, §4, §5, §6

K-562 [7] = assay: Cell-proliferation assay using Alamar Blue dye; assay type: cell-based; settings: Homo sapiens, K562

SMILES: O=C(O)c1ccc2c(c1)nc(Nc1ccc(OCc3ccccc3)cc1)c1ccncc12
- IC50 [1]: > 10 µM
- inhibition at 0.5 µM (recombinant human PIM1; cell-free assay): 44.3%
- IC50 (Jurkat): 14.2 µM

SMILES: O=C(O)c1ccc2c(c1)nc(Nc1ccccc1OCc1ccccc1)c1ccncc12
- IC50 [1]: > 10 µM
- inhibition at 0.5 µM (recombinant human PIM1; cell-free assay): 27.7%
- IC50 (Jurkat): 29.8 µM
- IC50 (K-562 [2]): > 10 µM
- IC50 (MV-4-11): > 10 µM

SMILES: O=C(O)c1ccc2c(c1)nc(Nc1ccc3c(c1)OCCO3)c1ccncc12
- IC50 [1]: > 10 µM
- inhibition at 0.5 µM (recombinant human PIM1; cell-free assay): 88.4%
- IC50 (recombinant human PIM1; cell-free assay): 0.259 µM
- IC50 (Jurkat): 29.6 µM
- IC50 (K-562 [2]): > 10 µM
- IC50 (MV-4-11): > 10 µM

SMILES: Clc1cc(OCCN2CCOCC2)ccc1Nc1nc2c(-c3nnc[nH]3)cccc2c2cnccc12
- IC50 [3]: > 30 µM
- IC50 (recombinant human PIM1): < 0.1 µM
- IC50 (FLT3 autophos): 6.01 µM
- IC50 (phospho-BAD ser112): < 0.1 µM
- IC50 (K-562 [4]): > 10 µM
- IC50 (MV-411): < 0.1 µM
- IC50 (MDA MB231): > 10 µM

SMILES: c1cc(-c2nnc[nH]2)c2nc(Nc3ccc(OCCN4CCOCC4)cc3)c3ccncc3c2c1
- IC50 [5]: 0.268 µM
- IC50 [3]: < 1 µM
- IC50 (recombinant human PIM1): < 0.1 µM
- IC50 (FLT3 autophos): > 10 µM
- IC50 (phospho-BAD ser112): < 0.5 µM
- IC50 (K-562 [4]): < 0.5 µM
- IC50 (MV-411): < 0.1 µM
- IC50 (MDA MB231): 2.04 µM

SMILES: c1cc(-c2nnc[nH]2)c2nc(NC3CCC3)c3ccncc3c2c1
- IC50 [5]: 7.62 µM
- IC50 [3]: < 0.5 µM
- IC50 (recombinant human PIM1): < 0.1 µM
- IC50 (FLT3 autophos): > 10 µM
- IC50 (phospho-BAD ser112): < 0.1 µM
- IC50 (K-562 [4]): < 0.5 µM
- IC50 (MV-411): < 0.1 µM
- IC50 (MDA MB231): > 10 µM

SMILES: COc1ccc(Nc2nc3c(-c4nnc[nH]4)cccc3c3cnccc23)c(F)c1
- IC50 [5]: < 0.5 µM
- IC50 [3]: < 0.5 µM
- IC50 (recombinant human PIM1): < 0.1 µM
- IC50 (FLT3 autophos): > 10 µM
- IC50 (phospho-BAD ser112): 0.51 µM
- IC50 (K-562 [4]): < 1 µM
- IC50 (MV-411): < 0.1 µM
- IC50 (MDA MB231): 6.86 µM

SMILES: c1cc(-c2nnc[nH]2)c2nc(N3CCCC3)c3ccncc3c2c1
- IC50 [5]: < 0.1 µM
- IC50 [3]: > 30 µM
- IC50 (recombinant human PIM1): < 0.5 µM
- IC50 (FLT3 autophos): > 10 µM
- IC50 (phospho-BAD ser112): 2.94 µM
- IC50 (K-562 [4]): 3.23 µM
- IC50 (MV-411): < 1 µM
- IC50 (MDA MB231): > 10 µM

SMILES: c1cc(-c2nnc[nH]2)c2nc(NC3CCCC3)c3ccncc3c2c1
- IC50 [3]: > 30 µM
- IC50 (recombinant human PIM1): < 0.1 µM
- IC50 (FLT3 autophos): > 10 µM
- IC50 (phospho-BAD ser112): < 0.5 µM
- IC50 (K-562 [4]): 1.93 µM
- IC50 (MV-411): < 0.5 µM
- IC50 (MDA MB231): > 10 µM

SMILES: FC(F)(F)Oc1ccc(Nc2nc3c(-c4nnc[nH]4)cccc3c3cnccc23)c(Cl)c1
- IC50 [5]: > 10 µM
- IC50 [3]: > 30 µM
- IC50 (recombinant human PIM1): < 0.1 µM
- IC50 (FLT3 autophos): > 10 µM
- IC50 (phospho-BAD ser112): 4.17 µM
- IC50 (K-562 [4]): > 10 µM
- IC50 (MV-411): < 0.1 µM
- IC50 (MDA MB231): > 10 µM

SMILES: C[C@]12O[C@H](C[C@]1(O)CO)n1c3ccccc3c3c4c(c5c6ccccc6n2c5c31)CNC4=O [CEP-701]
- inhibition of Flt3 (Flt3): potent inhibitor

SMILES: O=C(O)c1ccc2c(c1)nc(Nc1cccc(C(F)(F)F)c1)c1nc(NC3CC3)ncc12 [Compound A3]
- tumor progression (MiaPaca xenografts): significantly inhibited tumor progression

SMILES: CN(C)C[C@@H]1CCn2cc(c3ccccc32)C2=C(C(=O)NC2=O)c2cn(c3ccccc23)CCO1 [Ly5333′531]
- cell growth and cell death [6]: suppressed cell growth and induced cell death

SMILES: CN1CCC(CNc2ccc3ncc(-c4cccc(OC(F)(F)F)c4)n3n2)CC1 [SGI-1776]
- tumor regression (MV-4-11 (AML) xenograft): significant tumor regression
- tumor regression (MOLM-13 (AML) xenograft): significant tumor regression

SMILES: O=C(O)c1ccc2c(c1)nc(NCCc1ccccc1)c1ccncc12 [drawing 988]
- IC50 (A549): 47 µM
- IC50 (LNCaP): 8.6 µM
- IC50 (MCF-7): 14.7 µM

SMILES: O=C(O)c1ccc2c(c1)nc(NCCc1cccc(Cl)c1)c1ccncc12 [drawing 1001]
- IC50 (A549): 32.5 µM
- IC50 (LNCaP): 13.9 µM
- IC50 (MCF-7): 47.6 µM
- IC50 (MDAMB231): 14.2 µM
- IC50 (K-562 [7]): 9.18 µM

SMILES: O=C(O)c1ccc2c(c1)nc(NCCc1cccc(F)c1)c1ccncc12 [drawing 1002]
- IC50 (A549): 47.2 µM
- IC50 (LNCaP): 10.3 µM
- IC50 (MCF-7): > 50 µM
- IC50 (MDAMB231): 5.83 µM

SMILES: O=C(O)c1ccc2c(c1)nc(NCCCc1ccccc1)c1ccncc12 [drawing 1003]
- IC50 (A549): > 50 µM
- IC50 (LNCaP): 10.4 µM
- IC50 (MCF-7): > 50 µM
- IC50 (MDAMB231): 7.66 µM
- IC50 (K-562 [7]): 7.17 µM
